Experimental data: US7576115B2, “Heterocyclic compounds and thrombopoietin receptor activators” (Nissan Chemical Industries, Ltd., priority 2003, dated 2009)

molecular target: T1, thrombopoietin (TPO) receptor (Homo sapiens, UniProt P40238); assay: Stimulation of proliferation of TPO-dependent cell line UT7/EPO-mpl (WST-8); type: cell-based; conditions: FIG. 1; concentration-dependent; 4 days incubation, WST-8 absorbance at 450 nm
T1 construct: expressed in transfected cells; host or cells: human leukemic cell line UT7/EPO, stably transformed (UT7/EPO-mpl)
T1 sequence (P40238 26-635): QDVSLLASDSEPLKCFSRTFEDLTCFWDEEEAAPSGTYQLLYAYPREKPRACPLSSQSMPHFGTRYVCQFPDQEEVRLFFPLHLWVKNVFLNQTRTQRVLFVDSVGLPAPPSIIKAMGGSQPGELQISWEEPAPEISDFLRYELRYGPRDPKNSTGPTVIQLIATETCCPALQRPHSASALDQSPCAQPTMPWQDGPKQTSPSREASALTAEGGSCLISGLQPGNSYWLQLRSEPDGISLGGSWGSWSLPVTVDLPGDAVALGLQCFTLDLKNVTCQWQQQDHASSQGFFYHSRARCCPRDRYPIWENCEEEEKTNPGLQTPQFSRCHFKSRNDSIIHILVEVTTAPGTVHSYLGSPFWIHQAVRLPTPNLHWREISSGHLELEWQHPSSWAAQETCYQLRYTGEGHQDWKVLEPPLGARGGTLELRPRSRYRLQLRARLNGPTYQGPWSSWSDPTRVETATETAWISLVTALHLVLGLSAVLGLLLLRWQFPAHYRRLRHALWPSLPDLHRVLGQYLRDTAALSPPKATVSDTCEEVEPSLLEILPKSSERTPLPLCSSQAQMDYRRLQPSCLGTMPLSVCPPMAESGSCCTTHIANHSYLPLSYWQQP
Experimental: The reactivity of the compound of Synthetic Example 3 of the present invention with thrombopoietin (TPO) receptor was assayed using a human leukemic cell line, UT7/EPO-mpl.
(§1) UT7/EPO-mpl is a stable transformed cell line obtained by introducing into human leukemic cell line UT7/EPO a vector that induces expression of human TPO receptor (c-mp1) under control of a cytomegaloviral promoter by the method of Takatoku et al. (J. Biol. Chem., 272:7259-7263 (1997)). […] These two cell lines were subcultured in Iscove's modified Dulbecco's medium (IMDM; GIBCO) containing 10% fetal bovine serum (FBS; TRACE SCIENTIFIC, Thermo Electron or BioWest) using a CO2 incubator (5% CO2, 37° C.)
(§2) The subcultured cells described above were washed twice with phosphate buffered saline (PBS) and suspended in IMDM containing 10% FBS at a cell density of 6×10^4 cells/ml. The cell suspension was transferred to a 96-well tissue culture plate (CORNING) in 100 μl aliquots. Then either TPO (PeproTech EC) or the compound of Synthetic Example 3 dissolved in dimethyl sulfoxide (DMSO) was diluted 83-fold with IMDM containing 10% FBS and added to the aforementioned cell suspension in 20 μl aliquots. The suspension was incubated in a CO2 incubator (5% Co2, 37° C.) for 4 days. Cell proliferation was assayed using WST-8 reagent (Kishida Chemical Co., Ltd.) according to instructions by the manufacturer. A 10 μl aliquot of 5 mM WST-8 reagent solution was added to each well of the tissue culture plate, and the plate was incubated at 37° C. for 4 h. The formazan pigment generated was detected by measuring the absorbance at 450 nm with a 96-well microplate reader (Nihon Molecular Devices, Spectramax 190).
The compounds of the following Synthetic Examples were tested according to the method of Assay Example 1 to determine the concentration of each compound that yields a growth rate corresponding to 50% of the growth of human leukemic cell line UT-7/EPO-mpl observed in the presence of 10 ng/ml TPO (EC50).

For `CC(=NNC(=O)c1ccc(C(=O)O)cc1)c1nn(C)c(-c2ccc(C(C)(C)C)cc2)c1O` [Synthetic Example 3, 4-[(2-{1-[5-(4-tert-butylphenyl)-4-hydroxy-1-methyl-1H-pyrazol-3-yl]ethylidene}hydrazino)carbonyl]benzoic acid], the “proliferation of TPO-responsive UT7/EPO-mpl cells” value was “stimulated”.

same assay, conditions: concentration that yields a growth rate corresponding to 50% of the growth of UT-7/EPO-mpl observed in the presence of 10 ng/ml TPO

In order of falling EC50:
1. C/C(=N\NC(=O)c1ccc(N)c(N)c1)c1csc(-c2ccc(Cl)c(Cl)c2)c1O [compound 176]  36.8 nM
2. C/C(=N\NC(=S)Nc1ccc2cn[nH]c2c1)c1nn(C)c(-c2ccc(Cl)c(Cl)c2)c1O [compound 155]  11.2 nM
3. C/C(=N\NC(=S)Nc1ccccc1CC(N)=O)c1nn(C)c(-c2ccc(C(F)(F)F)cc2)c1O [compound 161]  7.95 nM
4. C/C(=N\NC(=O)c1ccc2cc(C(=O)O)ccc2c1)c1csc(-c2ccc(Cl)c(Cl)c2)c1O [compound 169]  7.41 nM
5. C/C(=N\NC(=S)Nc1cccc(C(=O)O)c1)c1csc(-c2ccc(C)c(C)c2)c1O [compound 136]  7.05 nM
6. C/C(=N\NC(=O)c1ccc(C(N)=O)s1)c1csc(-c2ccc(Cl)c(Cl)c2)c1O [compound 179]  6.6 nM
7. C/C(=N\NC(=O)c1ccc(C(=O)NC2CCCC2)s1)c1csc(-c2ccc(Cl)c(Cl)c2)c1O [compound 178]  6.51 nM
8. CC(=O)Nc1cccc(NC(=S)N/N=C(\C)c2nn(C)c(-c3ccc(C(F)(F)F)cc3)c2O)c1 [compound 157]  6.32 nM
9. C/C(=N\NC(=S)Nc1cc(C(=O)O)cc([N+](=O)[O-])c1)c1nn(C)c(-c2ccc(Cl)c(Cl)c2)c1O [compound 164]  5.73 nM
10. C/C(=N\NC(=S)Nc1ccc2[nH]c(=O)[nH]c2c1)c1csc(-c2ccc(Cl)c(Cl)c2)c1O [compound 154]  5.69 nM
11. C/C(=N\NC(=O)c1sc(N)nc1C(F)(F)F)c1csc(-c2ccc(Cl)c(Cl)c2)c1O [compound 181]  5.65 nM
12. C/C(=N\NC(=O)c1ccc(C(=O)NCCCN(C)C)s1)c1csc(-c2ccc(Cl)c(Cl)c2)c1O [compound 226]  4.08 nM
13. C/C(=N\NC(=O)c1ccc(C(=O)O)cc1N)c1nn(C)c(-c2ccc(C(F)(F)F)cc2)c1O [compound 228]  1.56 nM
14. C/C(=N\NC(=O)c1ccc(C(=O)O)c([N+](=O)[O-])c1)c1csc(-c2ccc(C)c(C)c2)c1O [compound 212]  0.529 nM

system: UT7/EPO cells; assay: Proliferation of mother cell line UT7/EPO expressing no TPO receptor (WST-8); type: cell-based, human; conditions: FIG. 2
Experimental: as §1
as §2, with “A 10 μl aliquot of 5 mM WST-8 reagent solution was added to each well of the tissue culture plate, and the plate was incubated at 37° C. for 4 h.” left out

In the case of `CC(=NNC(=O)c1ccc(C(=O)O)cc1)c1nn(C)c(-c2ccc(C(C)(C)C)cc2)c1O` [Synthetic Example 3, 4-[(2-{1-[5-(4-tert-butylphenyl)-4-hydroxy-1-methyl-1H-pyrazol-3-yl]ethylidene}hydrazino)carbonyl]benzoic acid], the “effect on proliferation of UT7/EPO, the mother cell line” value is reported as “no effect”.

system: Human bone marrow CD34+ cells; assay: Megakaryocyte colony stimulating activity (megakaryocyte colony forming method); type: cell-based; conditions: Concentration 0.3 μg/ml; 11 days; colonies of at least 8 stained megakaryocyte cells
Experimental: The action of the compound of Synthetic Example 2 of the present invention on the proliferation, differentiation and maturation of megakaryocyte cells was measured by the megakaryocyte colony forming method using human bone marrow cells. Human bone marrow CD34^+ cells (Cambrex Bio Science Walkersville) were incubated on 2-well chamber slide for 11 days in a CO2 incubator (5% CO2, 37° C.) using MegaCult™-C (StemCell Technologies) containing 0.1% (v/v) of the compound of Synthetic Example 2 dissolved in DMSO. After dehydration and fixation, the cells were stained with an anti-glycoprotein IIb/IIIa antibody in accordance with the instruction by the manufacturer. The colonies consisting of at least 8 stained megakaryocyte cells in each well was counted under a microscope. The megakaryocyte colony counts of duplicate or more assays were averaged.

With `CC(=NNC(=S)Nc1ccc(C(=O)O)cc1)c1nn(C)c(-c2ccc(Cl)c(Cl)c2)c1O` [Synthetic Example 2, 4-{[(2-{1-[5-(3,4-dichlorophenyl)-4-hydroxy-1-methyl-1H-pyrazol-3-yl]ethylidene}hydrazino)carbonothioyl]amino}benzoic acid] the “Megakaryocyte colony Count” value was 25.

same assay, conditions: Concentration 1 μg/ml; 11 days; colonies of at least 8 stained megakaryocyte cells

For `CC(=NNC(=S)Nc1ccc(C(=O)O)cc1)c1nn(C)c(-c2ccc(Cl)c(Cl)c2)c1O` [Synthetic Example 2, 4-{[(2-{1-[5-(3,4-dichlorophenyl)-4-hydroxy-1-methyl-1H-pyrazol-3-yl]ethylidene}hydrazino)carbonothioyl]amino}benzoic acid], the “Megakaryocyte colony Count” value was 48.
